≈ marks a conversion by molar mass, not a printed value.
How the values were obtained:
S. aureus ATCC 25923 = system: S. aureus ATCC 25923; design: key: R: resistance; S: sensitive; I: intermediate; conditions: Table 2; cited from earlier work
S. aureus AR222 = system: S. aureus AR222; design: key to Antibiotic susceptibility (R/S/I): R: resistance; S: sensitive; I: intermediate; conditions: S. aureus AR222 (CDC strain), cited from earlier work; for Antibiotic susceptibility (R/S/I): Table 2
S. aureus AR217 = system: S. aureus AR217; design: key to Antibiotic susceptibility (R/S/I): R: resistance; S: sensitive; I: intermediate; conditions: S. aureus AR217 (CDC strain), cited from earlier work; for Antibiotic susceptibility (R/S/I): Table 2
S. aureus AR215 = system: S. aureus AR215; design: key to Antibiotic susceptibility (R/S/I): R: resistance; S: sensitive; I: intermediate; conditions: S. aureus AR215 (CDC strain), cited from earlier work; for Antibiotic susceptibility (R/S/I): Table 2
S. aureus ATCC25923 = assay: S. aureus MIC80 determination, broth microdilution (CLSI) in CAMHB; type: cell-based; conditions: Staphylococcus aureus, ATCC25923; Table 1; S. aureus ATCC 25923; growth inhibition ≥80% vs vehicle, 16-24 h; read-out: ATCC 25923 MIC80
Protocol: S. Aureus MIC80 determinations in S. aureus ATCC25923 or in multidrug-resistant strains AR215, AR217 and AR255. MIC80's were determined by the broth microdilution method recommended by the Clinical and Laboratory Standards Institute (CLSI) in Cation-adjusted Mueller-Hinton broth (CAMHB). (Cao et al., 2018). In the preliminary screening, three compound concentrations were used: 5.8, 20.4, and 71.4 μM; for quantitative MIC80 measurements, a 1.5-fold dilution series of the compounds was prepared in CAMHB. Overnight bacterial culture was added to the diluted compounds in a 96-well plate after adjusting the bacterial concentration to achieve a 5×10^5 CFU/mL final concentration. After 16-24 h incubation at 35±2° C., the plates were read at 600 nm in a microplate reader. The MIC80 was defined as the concentration of an antibacterial agent that inhibited bacteria growth ≥80% compared to vehicle-treated control cultures. All values were determined at least twice independently, and the average number is reported.

CCCCCCCCCC(=O)N[C@@H](Cc1c[nH]c2ccccc12)C(=O)N[C@H](CC(N)=O)C(=O)N[C@@H](CC(=O)O)C(=O)N[C@@H]1C(=O)NCC(=O)N[C@@H](CCCN)C(=O)N[C@@H](CC(=O)O)C(=O)N[C@H](C)C(=O)N[C@@H](CC(=O)O)C(=O)NCC(=O)N[C@H](CO)C(=O)N[C@@H]([C@H](C)CC(=O)O)C(=O)N[C@@H](CC(=O)c2ccccc2N)C(=O)O[C@@H]1C [DAP, Daptomycin]
Antibiotic susceptibility (R/S/I) (S. aureus ATCC 25923): S | Antibiotic susceptibility (R/S/I) (S. aureus AR222): S

CC[C@H]1OC(=O)[C@H](C)[C@@H](O[C@H]2C[C@@](C)(OC)[C@@H](O)[C@H](C)O2)[C@H](C)[C@@H](O[C@@H]2O[C@H](C)C[C@H](N(C)C)[C@H]2O)[C@](C)(O)C[C@@H](C)C(=O)[C@H](C)[C@@H](O)[C@]1(C)O [ERY, Erythromycin]
Antibiotic susceptibility (R/S/I) (S. aureus ATCC 25923): S | Antibiotic susceptibility (R/S/I) (S. aureus AR217): S | Resistance of the strain to the antibiotic (S. aureus AR215): resistant | Antibiotic susceptibility (R/S/I) (S. aureus AR215): R | Antibiotic susceptibility (R/S/I) (S. aureus AR222): S

Cc1cc(Cl)cc2sc(N(CC3CCNC3)C(=O)C3CCC3)nc12 (centres unmarked) [Example 40, N-(6-chloro-4-methyl-1,3-benzothiazol-2-yl)-N-[(pyrrolidin-3-yl)methyl]cyclobutanecarboxamide]
MIC80 (S. aureus ATCC25923): 29.6 µM (≈ 10.8 µg/mL)

Cc1cc(Cl)cc2sc(N(CC3CCNC3)C(=O)C3CC3)nc12 (centres unmarked) [Example 41, N-(6-chloro-4-methylbenzo[d]thiazol-2-yl)-N-(pyrrolidin-3-ylmethyl)cyclopropanecarboxamide]
MIC80 (S. aureus ATCC25923): 44.4 µM (≈ 15.5 µg/mL)

Cc1cc(Cl)cc2sc(N(CC3CCCNC3)C(=O)C3CC3)nc12 (centres unmarked) [Example 42, N-(6-chloro-4-methyl-1,3-benzothiazol-2-yl)-N-[(piperidin-3-yl)methyl]cyclopropanecarboxamide]
MIC80 (S. aureus ATCC25923): 66.7 µM (≈ 24.3 µg/mL)

Cc1cc(Cl)cc2sc(N(CCC3CCNCC3)C(=O)C3CC3)nc12 [Example 43, N-(6-chloro-4-methyl-1,3-benzothiazol-2-yl)-N-[2-(piperidin-4-yl)ethyl]cyclopropanecarboxamide]
MIC80 (S. aureus ATCC25923): 100 µM (≈ 37.8 µg/mL)

Cc1cc(Cl)cc2sc(N(CCCn3cccc3)C(=O)c3ccco3)nc12 [Example 44, N-(6-chloro-4-methyl-1,3-benzothiazol-2-yl)-N-[3-(1H-pyrrol-1-yl)propyl]furan-2-carboxamide]
MIC80 (S. aureus ATCC25923): > 100 µM

Cc1cc(Cl)cc2sc(N(C[C@H]3CC[C@H](N)CC3)C(=O)C3CC3)nc12 [Example 45, N-(6-chloro-4-methyl-1,3-benzothiazol-2-yl)-N-{[(1r,4r)-4-aminocyclohexyl]methyl}cyclopropanecarboxamide]
MIC80 (S. aureus ATCC25923): 19.8 µM (≈ 7.48 µg/mL)

NCc1cccc2sc(N(CCCn3ccnc3)C(=O)c3ccco3)nc12 [Example 46, N-[4-(aminomethyl)-1,3-benzothiazol-2-yl]-N-[3-(1H-imidazol-1-yl)propyl]furan-2-carboxamide]
MIC80 (S. aureus ATCC25923): > 100 µM

NCc1cccc2sc(N(CCCn3ccnc3)C(=O)C3CCC3)nc12 [Example 47, N-[4-(aminomethyl)-1,3-benzothiazol-2-yl]-N-[3-(1H-imidazol-1-yl)propyl]cyclobutanecarboxamide]
MIC80 (S. aureus ATCC25923): > 100 µM

NCc1cccc2sc(N(CCCn3ccnc3)C(=O)C3CC3)nc12 [Example 48, N-[4-(aminomethyl)-1,3-benzothiazol-2-yl]-N-[3-(1H-imidazol-1-yl)propyl]cyclopropanecarboxamide]
MIC80 (S. aureus ATCC25923): > 100 µM

NCc1ccc2nc(N(CCCn3ccnc3)C(=O)c3ccco3)sc2c1 [Example 49, N-[6-(aminomethyl)-1,3-benzothiazol-2-yl]-N-[3-(1H-imidazol-1-yl)propyl]furan-2-carboxamide]
MIC80 (S. aureus ATCC25923): > 100 µM

NCc1ccc2nc(N(CCCn3ccnc3)C(=O)C3CCC3)sc2c1 [Example 50, N-[6-(aminomethyl)-1,3-benzothiazol-2-yl]-N-[3-(1H-imidazol-1-yl)propyl]cyclobutanecarboxamide]
MIC80 (S. aureus ATCC25923): > 100 µM

NCc1ccc2nc(N(CCCn3ccnc3)C(=O)C3CC3)sc2c1 [Example 51]
MIC80 (S. aureus ATCC25923): > 100 µM

O=C(c1ccco1)N(CCCn1ccnc1)c1nc2ccc(Cl)nc2s1 [Example 52, N-{5-chloro-[1,3]thiazolo[5,4-b]pyridin-2-yl}-N-[3-(1H-imidazol-1-yl)propyl]furan-2-carboxamide]
MIC80 (S. aureus ATCC25923): > 100 µM

O=C(C1CC1)N(CCCn1ccnc1)c1nc2ccc(Cl)nc2s1 [Example 53, N-{5-chloro-[1,3]thiazolo[5,4-b]pyridin-2-yl}-N-[3-(1H-imidazol-1-yl)propyl]cyclopropanecarboxamide]
MIC80 (S. aureus ATCC25923): > 100 µM

Cc1nc(Cl)cc2sc(N(CCCn3ccnc3)C(=O)c3ccco3)nc12 [Example 54, N-{6-chloro-4-methyl-[1,3]thiazolo[4,5-c]pyridin-2-yl}-N-[3-(1H-imidazol-1-yl)propyl]furan-2-carboxamide]
MIC80 (S. aureus ATCC25923): > 100 µM

Cc1nc(Cl)cc2sc(N(CCCn3ccnc3)C(=O)C3CC3)nc12 [Example 55, N-{6-chloro-4-methyl-[1,3]thiazolo[4,5-c]pyridin-2-yl}-N-[3-(1H-imidazol-1-yl)propyl]cyclopropanecarboxamide]
MIC80 (S. aureus ATCC25923): 100 µM (≈ 37.6 µg/mL)

Cc1cc(Cl)cc2sc(N(CC3CCN(C(=O)OC(C)(C)C)CC3)C(=O)C3CCC3)nc12 [Example 56]
MIC80 (S. aureus ATCC25923): > 100 µM

Cc1cc(Cl)cc2sc(N3CCC(CNC(=O)OC(C)(C)C)CC3)nc12 [Example 57]
MIC80 (S. aureus ATCC25923): > 100 µM

Cc1cc(Cl)cc2sc(N3CCC(NC(=O)OC(C)(C)C)CC3)nc12 [Example 58]
MIC80 (S. aureus ATCC25923): > 100 µM

Cc1cc(Cl)cc2sc(N3CCN(C(=O)OC(C)(C)C)CC3)nc12 [Example 59]
MIC80 (S. aureus ATCC25923): > 100 µM

Cc1cc(Cl)cc2sc(N(CCCn3ccnc3)C(=O)C(C)N)nc12 (centres unmarked) [Example 60]
MIC80 (S. aureus ATCC25923): > 100 µM

Cc1cc(Cl)cc2sc(NC(=O)C3CC3)nc12 [Example 61]
MIC80 (S. aureus ATCC25923): > 100 µM

Cc1cc(Cl)cc2sc(NC(=O)c3ccco3)nc12 [Example 62]
MIC80 (S. aureus ATCC25923): > 100 µM

CO[C@@]1(NC(=O)Cc2cccs2)C(=O)N2C(C(=O)O)=C(COC(N)=O)CS[C@@H]21 [FOX, Cefoxitin]
Resistance of the strain to the antibiotic (S. aureus AR217): resistant | Antibiotic susceptibility (R/S/I) (S. aureus AR217): R | Resistance of the strain to the antibiotic (S. aureus AR215): resistant | Antibiotic susceptibility (R/S/I) (S. aureus AR215): R | Antibiotic susceptibility (R/S/I) (S. aureus AR222): S

CC(=O)NC[C@H]1CN(c2ccc(N3CCOCC3)c(F)c2)C(=O)O1 [LZD, Linezolid]
Antibiotic susceptibility (R/S/I) (S. aureus ATCC 25923): S | Antibiotic susceptibility (R/S/I) (S. aureus AR217): S | Antibiotic susceptibility (R/S/I) (S. aureus AR215): S | Antibiotic susceptibility (R/S/I) (S. aureus AR222): S

Cc1onc(-c2ccccc2)c1C(=O)N[C@@H]1C(=O)N2[C@@H]1SC(C)(C)[C@@H]2C(=O)O [OXA, Oxacillin]
Antibiotic susceptibility (R/S/I) (S. aureus ATCC 25923): S | Resistance of the strain to the antibiotic (S. aureus AR217): resistant | Antibiotic susceptibility (R/S/I) (S. aureus AR217): R | Resistance of the strain to the antibiotic (S. aureus AR215): resistant | Antibiotic susceptibility (R/S/I) (S. aureus AR215): R | Antibiotic susceptibility (R/S/I) (S. aureus AR222): S

CO[C@H]1/C=C/O[C@@]2(C)Oc3c(C)c(O)c4c(O)c(c(/C=N/N5CCN(C)CC5)c(O)c4c3C2=O)NC(=O)/C(C)=C\C=C\[C@H](C)[C@H](O)[C@@H](C)[C@@H](O)[C@@H](C)[C@H](OC(C)=O)[C@@H]1C [RIF, Rifampin]
Antibiotic susceptibility (R/S/I) (S. aureus ATCC 25923): S | Antibiotic susceptibility (R/S/I) (S. aureus AR217): S | Antibiotic susceptibility (R/S/I) (S. aureus AR215): S | Antibiotic susceptibility (R/S/I) (S. aureus AR222): I

CN[C@H](CC(C)C)C(=O)N[C@H]1C(=O)N[C@@H](CC(N)=O)C(=O)N[C@H]2C(=O)N[C@H]3C(=O)N[C@H](C(=O)N[C@H](C(=O)O)c4cc(O)cc(O)c4-c4cc3ccc4O)[C@H](O)c3ccc(c(Cl)c3)Oc3cc2cc(c3O[C@@H]2O[C@H](CO)[C@@H](O)[C@H](O)[C@H]2O[C@H]2C[C@](C)(N)[C@H](O)[C@H](C)O2)Oc2ccc(cc2Cl)[C@H]1O [VAN, Vancomycin]
Antibiotic susceptibility (R/S/I) (S. aureus ATCC 25923): S | Antibiotic susceptibility (R/S/I) (S. aureus AR217): I | Antibiotic susceptibility (R/S/I) (S. aureus AR215): I | Antibiotic susceptibility (R/S/I) (S. aureus AR222): I

Penicillin
Resistance of the strain to the antibiotic (S. aureus AR217): resistant | Antibiotic susceptibility (R/S/I) (S. aureus AR217): R | Resistance of the strain to the antibiotic (S. aureus AR215): resistant | Antibiotic susceptibility (R/S/I) (S. aureus AR215): R | Resistance of the strain to the antibiotic (S. aureus AR222): resistant | Antibiotic susceptibility (R/S/I) (S. aureus AR222): R

— patent US12570647B2 (Saint Louis University, priority 2021, dated 2026)
